Source: ChEMBL document CHEMBL1201862, “PubChem BioAssay data set” (2004)
Activity calls are given as the source filed them.

Assays:
[1] = biological target: Intestinal-type alkaline phosphatase (Mus musculus, UniProt P24822); assay: PubChem AID 488785; assay type: functional
[2] = biological target: T1, Alkaline phosphatase, tissue-nonspecific isozyme (Homo sapiens, UniProt P05186); assay: TNAP enzyme inhibition by screening hits, dose response, selectivity assay for mouse IAP inhibitor project, biochemical, human TNAP, uHTS hits (AID 488906); assay type: functional
T1 sequence (P05186 whole entry): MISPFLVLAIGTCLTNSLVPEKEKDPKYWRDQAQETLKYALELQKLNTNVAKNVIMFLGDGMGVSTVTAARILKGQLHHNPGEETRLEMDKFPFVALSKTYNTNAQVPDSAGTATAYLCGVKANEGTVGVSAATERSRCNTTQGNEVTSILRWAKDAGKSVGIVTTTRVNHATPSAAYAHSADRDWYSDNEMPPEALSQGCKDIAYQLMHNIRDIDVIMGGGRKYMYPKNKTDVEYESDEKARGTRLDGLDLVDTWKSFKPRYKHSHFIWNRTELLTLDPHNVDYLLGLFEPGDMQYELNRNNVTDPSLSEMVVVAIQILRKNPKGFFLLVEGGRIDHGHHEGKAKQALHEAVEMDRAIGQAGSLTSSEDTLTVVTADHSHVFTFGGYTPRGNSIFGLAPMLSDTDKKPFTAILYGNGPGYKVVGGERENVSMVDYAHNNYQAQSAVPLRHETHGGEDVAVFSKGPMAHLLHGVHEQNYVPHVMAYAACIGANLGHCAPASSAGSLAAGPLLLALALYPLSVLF

[3] = biological target: T2, Intestinal-type alkaline phosphatase (Homo sapiens, UniProt P09923); assay: inhibition of human intestinal alkaline phosphatase – biochemical, dose response (AID 488876); assay type: functional
SUMO E1/E2 = SUMO E1/E2 (Homo sapiens, UniProt P63279+Q9UBE0+Q9UBT2); assay: SAR analysis of SUMOylation using HTRF in an in-Vitro dose response assay. [Related pubchem assays (depositor defined):AID2006, AID2011, AID2018, AID2069, AID2658]; assay type: functional
Large T antigen = Large T antigen (Simian virus 40, UniProt P03070); assay type: functional, Betapolyomavirus macacae;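 note: Confirmatory-stage PubChem screen for compounds that inhibit SV40 T antigen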
HeLa = assay: viability loss in HeLa cells – cell-based, 24 h, cherry-picked samples, cytotoxicity control, dose response (AID 504726); assay type: functional; details: Homo sapiens;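 note: potency for cytotoxicity as loss of luminescence signal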
ORF 73 = biological target: T3, ORF 73 (Human herpesvirus 8, UniProt O40947); assay: KSHV LANA DNA-binding disruption – biochemical, fluorescence polarization, cherry-picked samples, dose response (AID 504725); parameters: species or system Human gammaherpesvirus 8;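 note: fluorescence polarization of a labeled DNA duplex reporting LANA DNA binding; potency is for inhibitors that block LANA binding to the DNA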
T3 sequence (O40947 whole entry): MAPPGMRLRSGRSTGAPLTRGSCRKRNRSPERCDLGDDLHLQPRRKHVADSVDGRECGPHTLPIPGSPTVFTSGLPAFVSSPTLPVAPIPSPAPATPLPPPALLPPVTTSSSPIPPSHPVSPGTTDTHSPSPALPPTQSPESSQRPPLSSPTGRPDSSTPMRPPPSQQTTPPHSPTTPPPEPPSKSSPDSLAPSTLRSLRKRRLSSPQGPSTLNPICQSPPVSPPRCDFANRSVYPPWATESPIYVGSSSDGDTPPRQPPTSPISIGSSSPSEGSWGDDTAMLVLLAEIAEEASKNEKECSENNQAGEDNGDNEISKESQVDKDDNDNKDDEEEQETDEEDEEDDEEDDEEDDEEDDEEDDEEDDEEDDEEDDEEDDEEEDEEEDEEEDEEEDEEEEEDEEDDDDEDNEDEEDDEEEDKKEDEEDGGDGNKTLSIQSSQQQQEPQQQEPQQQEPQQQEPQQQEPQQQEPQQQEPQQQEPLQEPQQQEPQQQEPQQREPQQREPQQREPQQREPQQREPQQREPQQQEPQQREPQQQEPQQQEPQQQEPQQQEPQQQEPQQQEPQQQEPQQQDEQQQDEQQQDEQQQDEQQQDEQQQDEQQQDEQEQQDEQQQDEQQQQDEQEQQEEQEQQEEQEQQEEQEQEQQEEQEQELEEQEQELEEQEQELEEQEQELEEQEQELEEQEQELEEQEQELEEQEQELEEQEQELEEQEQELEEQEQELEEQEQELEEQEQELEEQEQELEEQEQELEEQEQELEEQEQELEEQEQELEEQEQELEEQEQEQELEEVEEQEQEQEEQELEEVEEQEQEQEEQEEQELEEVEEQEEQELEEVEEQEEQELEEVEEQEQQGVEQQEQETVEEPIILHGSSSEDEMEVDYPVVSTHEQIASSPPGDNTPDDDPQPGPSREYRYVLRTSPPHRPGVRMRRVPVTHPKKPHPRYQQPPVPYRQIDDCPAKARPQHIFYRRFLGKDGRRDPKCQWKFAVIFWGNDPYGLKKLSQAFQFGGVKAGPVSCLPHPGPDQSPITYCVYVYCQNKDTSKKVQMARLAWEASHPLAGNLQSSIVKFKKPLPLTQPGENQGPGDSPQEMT

[4] = biological target: T2, Intestinal-type alkaline phosphatase; assay: activation of human intestinal alkaline phosphatase – biochemical, dose response (AID 488873); assay type: functional
[5] = biological target: T1, Alkaline phosphatase, tissue-nonspecific isozyme; assay: activation of tissue-nonspecific alkaline phosphatase – biochemical, TNAP isozyme, mouse IAP uHTS hits, selectivity assay for mouse IAP activator project, dose response (AID 488880); assay type: functional
[6] = biological target: Lysine-specific demethylase 4A (Homo sapiens, UniProt O75164); assay: inhibition of JMJD2A H3K9me3 demethylation – biochemical, DELFIA europium, cherry-picked samples, selectivity assay for GASC-1 inhibitor project, dose response (AID 488840)
[7] = biological target: Lysine-specific demethylase 4C (Homo sapiens, UniProt Q9H3R0); assay: inhibition of JMJD2C H3K9me3 demethylation – biochemical, DELFIA europium, cherry-picked samples, dose response (AID 488835); assay type: functional
[8] = biological target: T4, Sentrin-specific protease 8 (Homo sapiens, UniProt Q96LD8); assay type: functional
T4 sequence (Q96LD8 whole entry): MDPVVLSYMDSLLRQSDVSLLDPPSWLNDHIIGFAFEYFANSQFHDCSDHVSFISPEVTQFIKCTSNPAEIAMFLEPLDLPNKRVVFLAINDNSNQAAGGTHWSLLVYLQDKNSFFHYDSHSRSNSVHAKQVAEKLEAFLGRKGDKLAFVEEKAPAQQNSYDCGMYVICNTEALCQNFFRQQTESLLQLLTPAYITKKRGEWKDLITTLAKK

[9] = biological target: T4, Sentrin-specific protease 8; assay type: functional; remark: listed apart in the source

Sequence of Intestinal-type alkaline phosphatase (Mus musculus, UniProt P24822) (P24822 whole entry): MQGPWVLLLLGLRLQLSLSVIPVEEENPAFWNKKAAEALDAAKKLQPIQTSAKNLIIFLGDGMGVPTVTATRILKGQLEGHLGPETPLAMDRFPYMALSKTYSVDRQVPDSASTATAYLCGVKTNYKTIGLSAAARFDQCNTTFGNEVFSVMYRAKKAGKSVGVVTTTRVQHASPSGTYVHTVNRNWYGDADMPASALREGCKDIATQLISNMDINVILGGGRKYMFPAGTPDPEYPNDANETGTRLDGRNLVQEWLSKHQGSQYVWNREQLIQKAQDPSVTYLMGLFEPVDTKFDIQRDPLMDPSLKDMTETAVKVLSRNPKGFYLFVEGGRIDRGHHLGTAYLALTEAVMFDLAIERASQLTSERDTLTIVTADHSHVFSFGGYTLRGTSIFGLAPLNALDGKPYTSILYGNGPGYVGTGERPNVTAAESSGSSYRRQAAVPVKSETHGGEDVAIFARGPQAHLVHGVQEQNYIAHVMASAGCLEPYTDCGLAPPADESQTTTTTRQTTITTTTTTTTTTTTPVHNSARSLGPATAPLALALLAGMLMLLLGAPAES
T2 sequence (P09923 whole entry): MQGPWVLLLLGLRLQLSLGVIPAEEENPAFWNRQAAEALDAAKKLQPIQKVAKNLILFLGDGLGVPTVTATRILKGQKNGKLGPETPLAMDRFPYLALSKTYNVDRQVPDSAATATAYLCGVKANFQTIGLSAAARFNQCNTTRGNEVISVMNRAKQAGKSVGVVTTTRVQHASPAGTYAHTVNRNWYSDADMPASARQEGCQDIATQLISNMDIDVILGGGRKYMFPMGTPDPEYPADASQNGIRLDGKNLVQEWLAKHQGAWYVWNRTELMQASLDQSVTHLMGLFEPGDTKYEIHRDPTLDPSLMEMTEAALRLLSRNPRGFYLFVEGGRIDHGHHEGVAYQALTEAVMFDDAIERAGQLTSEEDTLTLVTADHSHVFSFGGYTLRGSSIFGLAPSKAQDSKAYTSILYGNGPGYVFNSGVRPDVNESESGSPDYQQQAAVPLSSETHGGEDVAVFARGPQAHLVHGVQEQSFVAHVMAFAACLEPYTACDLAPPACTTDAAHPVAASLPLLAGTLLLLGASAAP
Sequence of Lysine-specific demethylase 4C (Q9H3R0 whole entry): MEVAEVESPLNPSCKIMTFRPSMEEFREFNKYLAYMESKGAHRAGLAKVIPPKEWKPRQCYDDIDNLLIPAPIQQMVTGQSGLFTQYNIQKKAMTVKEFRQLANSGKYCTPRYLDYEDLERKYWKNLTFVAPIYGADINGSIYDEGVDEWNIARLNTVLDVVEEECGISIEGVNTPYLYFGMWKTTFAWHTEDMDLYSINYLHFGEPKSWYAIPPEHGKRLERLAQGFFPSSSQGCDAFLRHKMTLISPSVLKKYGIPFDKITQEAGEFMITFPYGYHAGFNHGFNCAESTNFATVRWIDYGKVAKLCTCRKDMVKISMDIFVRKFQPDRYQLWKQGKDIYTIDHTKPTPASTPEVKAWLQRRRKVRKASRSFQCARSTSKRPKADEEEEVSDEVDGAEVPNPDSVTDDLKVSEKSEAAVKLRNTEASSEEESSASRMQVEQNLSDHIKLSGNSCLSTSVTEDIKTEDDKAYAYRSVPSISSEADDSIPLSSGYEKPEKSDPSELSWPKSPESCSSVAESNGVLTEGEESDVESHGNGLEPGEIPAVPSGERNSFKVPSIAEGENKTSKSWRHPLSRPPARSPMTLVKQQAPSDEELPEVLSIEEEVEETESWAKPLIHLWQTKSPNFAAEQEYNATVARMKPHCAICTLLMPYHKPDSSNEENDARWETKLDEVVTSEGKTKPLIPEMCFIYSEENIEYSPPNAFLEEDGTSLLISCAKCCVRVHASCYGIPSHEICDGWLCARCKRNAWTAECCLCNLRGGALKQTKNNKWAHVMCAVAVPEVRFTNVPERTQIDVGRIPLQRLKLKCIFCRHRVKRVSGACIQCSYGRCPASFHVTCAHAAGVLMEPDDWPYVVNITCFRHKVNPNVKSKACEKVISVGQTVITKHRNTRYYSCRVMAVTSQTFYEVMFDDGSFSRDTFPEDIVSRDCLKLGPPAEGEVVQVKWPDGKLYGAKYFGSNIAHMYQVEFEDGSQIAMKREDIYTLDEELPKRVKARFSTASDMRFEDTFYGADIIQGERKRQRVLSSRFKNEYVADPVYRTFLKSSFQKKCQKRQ
Sequence of Large T antigen (P03070 whole entry): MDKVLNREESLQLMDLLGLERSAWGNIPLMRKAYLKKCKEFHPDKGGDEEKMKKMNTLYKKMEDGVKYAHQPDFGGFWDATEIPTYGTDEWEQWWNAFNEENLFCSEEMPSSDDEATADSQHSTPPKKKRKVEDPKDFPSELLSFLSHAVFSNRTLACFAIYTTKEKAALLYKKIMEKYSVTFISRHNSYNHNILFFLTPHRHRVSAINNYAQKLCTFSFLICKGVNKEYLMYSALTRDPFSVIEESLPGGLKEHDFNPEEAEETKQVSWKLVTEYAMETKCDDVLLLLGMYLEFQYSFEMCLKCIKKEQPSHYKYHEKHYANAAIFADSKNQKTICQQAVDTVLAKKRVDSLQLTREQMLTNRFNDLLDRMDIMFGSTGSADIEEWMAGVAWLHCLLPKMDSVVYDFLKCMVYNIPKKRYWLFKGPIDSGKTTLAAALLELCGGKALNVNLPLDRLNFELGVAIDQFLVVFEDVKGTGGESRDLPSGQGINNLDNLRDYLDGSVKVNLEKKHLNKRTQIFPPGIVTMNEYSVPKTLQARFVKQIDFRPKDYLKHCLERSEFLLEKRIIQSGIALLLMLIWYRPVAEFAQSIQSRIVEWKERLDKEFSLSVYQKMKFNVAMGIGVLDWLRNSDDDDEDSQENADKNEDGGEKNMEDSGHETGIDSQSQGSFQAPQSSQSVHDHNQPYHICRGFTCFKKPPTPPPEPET
Sequence of Lysine-specific demethylase 4A (O75164 whole entry): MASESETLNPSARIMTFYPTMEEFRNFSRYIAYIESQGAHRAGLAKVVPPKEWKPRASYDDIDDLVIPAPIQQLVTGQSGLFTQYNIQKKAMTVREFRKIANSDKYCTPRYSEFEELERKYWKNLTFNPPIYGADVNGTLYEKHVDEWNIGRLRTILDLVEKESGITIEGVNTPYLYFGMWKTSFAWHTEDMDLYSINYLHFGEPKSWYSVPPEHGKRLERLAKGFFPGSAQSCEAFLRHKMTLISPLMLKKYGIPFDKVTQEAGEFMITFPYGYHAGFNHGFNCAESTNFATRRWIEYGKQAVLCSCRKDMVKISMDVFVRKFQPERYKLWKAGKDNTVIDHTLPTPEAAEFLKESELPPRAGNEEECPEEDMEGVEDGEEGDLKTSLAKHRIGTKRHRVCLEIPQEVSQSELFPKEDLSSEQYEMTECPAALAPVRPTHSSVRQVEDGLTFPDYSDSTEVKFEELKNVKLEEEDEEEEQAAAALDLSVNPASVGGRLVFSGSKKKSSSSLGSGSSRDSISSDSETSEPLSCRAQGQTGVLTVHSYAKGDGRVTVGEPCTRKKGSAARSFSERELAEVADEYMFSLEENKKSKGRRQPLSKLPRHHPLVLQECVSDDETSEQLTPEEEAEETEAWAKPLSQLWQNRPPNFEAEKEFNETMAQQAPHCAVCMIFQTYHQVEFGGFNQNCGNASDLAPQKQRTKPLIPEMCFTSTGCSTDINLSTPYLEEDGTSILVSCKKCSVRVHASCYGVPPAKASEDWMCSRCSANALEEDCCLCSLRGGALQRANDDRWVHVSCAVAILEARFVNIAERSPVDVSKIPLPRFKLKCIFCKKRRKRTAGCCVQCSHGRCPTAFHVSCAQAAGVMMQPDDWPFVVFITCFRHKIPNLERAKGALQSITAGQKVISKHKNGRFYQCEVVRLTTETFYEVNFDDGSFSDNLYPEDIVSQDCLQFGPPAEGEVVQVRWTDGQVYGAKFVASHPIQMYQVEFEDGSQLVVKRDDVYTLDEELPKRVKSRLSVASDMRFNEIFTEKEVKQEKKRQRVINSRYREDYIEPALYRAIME

`O=C(O)CNS(=O)(=O)c1ccc2c3c(cccc13)C(=O)N2` was tested, and the IC50 [1] was 8.43 µM (active), the IC50 [2] was 85.4 µM (active) and the IC50 [3] was > 100 µM (inactive).
For `Cc1ccc(O)c(N=Cc2cccs2)c1`, the IC50 (SUMO E1/E2) was > 100 µM (inactive).
`N=C1/C(=C\c2ccc(O)c(O)c2)C(=O)N=C2SC(CC(=O)N3CCCCC3)=NN12` was tested, and the IC50 (Large T antigen) was 1.92 µM (active), the AC50 (HeLa) was 267 µM (active) and the AC50 (ORF 73) was 2.44 µM (active). The EC50 [4] was 21.3 µM (active), the IC50 [1] was 6.98 µM (active) and the EC50 [5] was 21.5 µM (active).
In the case of `CN1C(=O)C(Cc2ccsc2)C(=O)N(C)C1=O`, the AC50 [6] is reported as 8.7 µM (active), the AC50 [7] is reported as 3.65 µM (active) and the IC50 [8] is reported as 33.6 µM (active). The IC50 [9] was 29.2 µM (active).
